Assay results: patent publication US11000033B2, “Ketone or oxime compound, and herbicide” (NISSAN CHEMICAL CORPORATION, priority 2014, dated 2021)

Experiments:
Format in all cases: in vivo
Cyperus difformis = assay: Test Example 3: herbicidal effect by foliage application, Wagner pot (symbol E); conditions: application herbicide amount 320 g/ha
How it was run: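 Alluvial soil was flooded to a depth of 0.1–0.5 cm, seeded with the weeds and rice, and kept in a greenhouse at 25–30 °C. After 14 days of growth, the foliage received a small-sprayer application of emulsion diluted to the intended rate; injury was rated at 3 weeks.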

Abutilon theophrasti = assay: Test Example 4: herbicidal effect by soil treatment (symbol M); conditions: for M (Abutilon theophrasti) herbicidal effect grade: application herbicide amount 320 g/ha; for M: Abutilon theophrasti, herbicidal effect grade: 320 g/ha
How it was run: (§1)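 Seeds were sown in sterilized diluvial soil, covered with about 1.5 cm of soil, and the soil surface was sprayed with a water-diluted emulsion of the compound at a predetermined rate. Plants grew in a greenhouse at 25° C. to 30° C.; effects were scored visually 3 weeks after application.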

[1] = tested on: Echinochloa oryzacola Vasing.; assay: Test Example 2: herbicidal activity, application during weed generation in submerged conditions (symbol A); conditions: Table 23; application herbicide amount 320 g/ha; grade 0-5 by criteria of Test Example 1
How it was run: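 Weeds emerging under flooded conditions were treated with compound formulated as an emulsion and diluted with water to the intended herbicide amount, poured onto the surface of 4 cm standing water. Seeds had been co-sown in alluvial soil; plants grew at 25° C. to 30° C. and were assessed after 3 weeks.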

Digitaria ciliaris [2] = assay: Test Example 5: herbicidal effect by foliage application, plastic box (symbol F); conditions: 320 g/ha, 3 weeks after application
How it was run: (§2)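 Leaf-applied emulsion, water-diluted to a preset herbicide dose, on two-week-old seedlings raised in a 25° C. to 30° C. greenhouse; injury rated at 3 weeks using earlier criteria.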

beet [3] = assay: Test Example 4: effect on crop by soil treatment (symbol f); conditions: for f (beet) effect on crop grade: application herbicide amount 320 g/ha; for f: beet, effect grade on crop: 320 g/ha
How it was run: (§3)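 Soil-treatment setup: crop and weed seeds were spot-sown into sterilized diluvial soil, then buried beneath approximately 1.5 cm of it, and the boxes were housed in a 25–30° C. greenhouse.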

corn = assay: Test Example 4: effect on crop by soil treatment (symbol c); conditions: for c (corn) effect on crop grade: application herbicide amount 320 g/ha; for c: corn, effect grade on crop: 320 g/ha
How it was run: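 Diluvial soil (sterilized) in boxes; seeds placed spot-wise alongside weed species; ~1.5 cm covering soil. Greenhouse, 25–30° C.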

Alopecurus myosuroides = assay: Test Example 5: herbicidal effect by foliage application, plastic box (symbol J); conditions: 320 g/ha, 3 weeks after application
How it was run: as §2

[4] = tested on: directly sowed rice plant; assay: Test Example 3: effect on crop by foliage application, Wagner pot (symbol b); conditions: application herbicide amount 320 g/ha
How it was run: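 Plants are raised from seed in flooded paddy conditions: water stands 0.1–0.5 cm over alluvial soil, and the pot is kept in a greenhouse at 25–30 °C. Species sown are barnyardgrass (E. crus-galli var. crus-galli), Leptochloa chinensis, Cyperus difformis and rice.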

Setaria viridis = assay: Test Example 5: herbicidal effect by foliage application, plastic box (symbol G); conditions: 320 g/ha, 3 weeks after application
How it was run: as §2

beet [5] = assay: Test Example 5: effect on crop by foliage application, plastic box (symbol f); conditions: 320 g/ha, 3 weeks after application
How it was run: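 Crop seed is sown alongside grass and broadleaf weed species in spots in sterilized diluvial soil, then covered to a depth of about 1.5 cm. Plants grow in a greenhouse kept at 25° C. to 30° C.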

rice = assay: Test Example 4: effect on crop by soil treatment (symbol b); conditions: for b (directly sowed rice plant) effect on crop grade: application herbicide amount 320 g/ha; for b: directly sowed rice plant, effect grade on crop: 320 g/ha
How it was run: as §3

Apera spica-venti = assay: Test Example 5: herbicidal effect by foliage application, plastic box (symbol L); conditions: 320 g/ha, 3 weeks after application
How it was run: as §2

wheat = assay: Test Example 4: effect on crop by soil treatment (symbol e); conditions: for e (wheat) effect on crop grade: application herbicide amount 320 g/ha; for e: wheat, effect grade on crop: 320 g/ha
How it was run: as §3

Galium spurium = assay: Test Example 5: herbicidal effect by foliage application, plastic box (symbol Q); conditions: 320 g/ha, 3 weeks after application
How it was run: as §2

[6] = tested on: Echinochloa crus-galli var. crus-galli; assay: Test Example 4: herbicidal effect by soil treatment (symbol H); conditions: for H (Echinochloa crus-galli var. crus-galli) herbicidal effect grade: application herbicide amount 320 g/ha; for H: Echinochloa crus-galli var. crus-galli, herbicidal effect grade: 320 g/ha
How it was run: as §1

Veronica persica = assay: Test Example 5: herbicidal effect by foliage application, plastic box (symbol R); conditions: 320 g/ha, 3 weeks after application
How it was run: as §2

Lolium multiflorum Lam. = assay: Test Example 4: herbicidal effect by soil treatment (symbol K); conditions: for K (Lolium multiflorum Lam.) herbicidal effect grade: application herbicide amount 320 g/ha; for K: Lolium multiflorum Lam., herbicidal effect grade: 320 g/ha
How it was run: as §1

Digitaria ciliaris [7] = assay: Test Example 4: herbicidal effect by soil treatment (symbol F); conditions: for F (Digitaria ciliaris) herbicidal effect grade: application herbicide amount 320 g/ha; for F: Digitaria ciliaris, herbicidal effect grade: 320 g/ha
How it was run: as §1

SMILES	herbicidal effect on E, grade 0-5 (Cyperus difformis)	M (Abutilon theophrasti) herbicidal effect grade (Abutilon theophrasti)	Herbicidal effect grade, A: Echinochloa oryzacola Vasing. [1]	F: Digitaria ciliaris, herbicidal effect grade (Digitaria ciliaris [2])	f (beet) effect on crop grade (beet [3])	c (corn) effect on crop grade (corn)	J: Alopecurus myosuroides, herbicidal effect grade (Alopecurus myosuroides)	effect on crop b (directly sowed rice plant), grade 0-5 [4]	G: Setaria viridis, herbicidal effect grade (Setaria viridis)	f: beet, effect on crop grade (beet [5])	b (directly sowed rice plant) effect on crop grade (rice)	L: Apera spica-venti, herbicidal effect grade (Apera spica-venti)	e (wheat) effect on crop grade (wheat)	Q: Galium spurium, herbicidal effect grade (Galium spurium)	H (Echinochloa crus-galli var. crus-galli) herbicidal effect grade [6]	R: Veronica persica, herbicidal effect grade (Veronica persica)	K (Lolium multiflorum Lam.) herbicidal effect grade (Lolium multiflorum Lam.)	F (Digitaria ciliaris) herbicidal effect grade (Digitaria ciliaris [7])	M: Abutilon theophrasti, herbicidal effect grade (Abutilon theophrasti)	F: Digitaria ciliaris, herbicidal effect (criteria 0-5) (Digitaria ciliaris [2])	also measured
CON=C(CC1CC(O)=C(c2c(C)cc(C)cc2C)C1=O)C(C)C (stereo not drawn) [1-048]	5 (Herbicidal ratio of 90% or more (almost completely withered))	3 (Herbicidal ratio of 40% or higher and lower than 70%)	5 (Herbicidal ratio of 90% or more (almost completely withered))	4 (Herbicidal ratio of 70% or higher and lower than 90%)	0 (Herbicidal ratio of 5% or lower (almost no effect))	3 (Herbicidal ratio of 40% or higher and lower than 70%)	5 (Herbicidal ratio of 90% or more (almost completely withered))	5 (Herbicidal ratio of 90% or more (almost completely withered))	4 (Herbicidal ratio of 70% or higher and lower than 90%)	1 (Herbicidal ratio of 5% or higher and lower than 20%)	5 (Herbicidal ratio of 90% or more (almost completely withered))	5 (Herbicidal ratio of 90% or more (almost completely withered))	2 (Herbicidal ratio of 20% or higher and lower than 40%)	1 (Herbicidal ratio of 5% or higher and lower than 20%)	5 (Herbicidal ratio of 90% or more (almost completely withered))	3 (Herbicidal ratio of 40% or higher and lower than 70%)	5 (Herbicidal ratio of 90% or more (almost completely withered))	5 (Herbicidal ratio of 90% or more (almost completely withered))	–	–	–
C=CC(CC1CC(O)=C(c2c(C)cc(C)cc2C)C1=O)=NOC (stereo not drawn) [1-086]	4 (Herbicidal ratio of 70% or higher and lower than 90%)	–	5 (Herbicidal ratio of 90% or more (almost completely withered))	–	–	–	–	5 (Herbicidal ratio of 90% or more (almost completely withered))	–	–	–	–	–	–	–	–	–	–	0 (Herbicidal ratio of 5% or lower (almost no effect))	0 (Herbicidal ratio of 5% or lower (almost no effect))	f: beet, effect grade on crop (beet [3]): 0 (Herbicidal ratio of 5% or lower (almost no effect)); c: corn, effect grade on crop (corn): 1 (Herbicidal ratio of 5% or higher and lower than 20%); J: Alopecurus myosuroides, herbicidal effect (criteria 0-5) (Alopecurus myosuroides): 4 (Herbicidal ratio of 70% or higher and lower than 90%); G: Setaria viridis, herbicidal effect (criteria 0-5) (Setaria viridis): 3 (Herbicidal ratio of 40% or higher and lower than 70%); f: beet, effect on crop (criteria 0-5) (beet [5]): 0 (Herbicidal ratio of 5% or lower (almost no effect)); b: directly sowed rice plant, effect grade on crop (rice): 5 (Herbicidal ratio of 90% or more (almost completely withered)); L: Apera spica-venti, herbicidal effect (criteria 0-5) (Apera spica-venti): 4 (Herbicidal ratio of 70% or higher and lower than 90%); e: wheat, effect grade on crop (wheat): 0 (Herbicidal ratio of 5% or lower (almost no effect)); Q: Galium spurium, herbicidal effect (criteria 0-5) (Galium spurium): 0 (Herbicidal ratio of 5% or lower (almost no effect)); H: Echinochloa crus-galli var. crus-galli, herbicidal effect grade [6]: 1 (Herbicidal ratio of 5% or higher and lower than 20%); R: Veronica persica, herbicidal effect (criteria 0-5) (Veronica persica): 2 (Herbicidal ratio of 20% or higher and lower than 40%); K: Lolium multiflorum Lam., herbicidal effect grade (Lolium multiflorum Lam.): 5 (Herbicidal ratio of 90% or more (almost completely withered)); F: Digitaria ciliaris, herbicidal effect grade (Digitaria ciliaris [7]): 2 (Herbicidal ratio of 20% or higher and lower than 40%)
CON=C(C)CC1CC(OC(=O)C2=CCCC2)=C(c2c(C)cc(C)cc2C)C1=O (stereo not drawn) [1-088]	5 (Herbicidal ratio of 90% or more (almost completely withered))	–	5 (Herbicidal ratio of 90% or more (almost completely withered))	–	–	–	–	5 (Herbicidal ratio of 90% or more (almost completely withered))	–	–	–	–	–	–	–	–	–	–	0 (Herbicidal ratio of 5% or lower (almost no effect))	5 (Herbicidal ratio of 90% or more (almost completely withered))	f: beet, effect grade on crop (beet [3]): 0 (Herbicidal ratio of 5% or lower (almost no effect)); c: corn, effect grade on crop (corn): 4 (Herbicidal ratio of 70% or higher and lower than 90%); J: Alopecurus myosuroides, herbicidal effect (criteria 0-5) (Alopecurus myosuroides): 5 (Herbicidal ratio of 90% or more (almost completely withered)); G: Setaria viridis, herbicidal effect (criteria 0-5) (Setaria viridis): 5 (Herbicidal ratio of 90% or more (almost completely withered)); f: beet, effect on crop (criteria 0-5) (beet [5]): 0 (Herbicidal ratio of 5% or lower (almost no effect)); b: directly sowed rice plant, effect grade on crop (rice): 5 (Herbicidal ratio of 90% or more (almost completely withered)); L: Apera spica-venti, herbicidal effect (criteria 0-5) (Apera spica-venti): 5 (Herbicidal ratio of 90% or more (almost completely withered)); e: wheat, effect grade on crop (wheat): 3 (Herbicidal ratio of 40% or higher and lower than 70%); Q: Galium spurium, herbicidal effect (criteria 0-5) (Galium spurium): 0 (Herbicidal ratio of 5% or lower (almost no effect)); H: Echinochloa crus-galli var. crus-galli, herbicidal effect grade [6]: 5 (Herbicidal ratio of 90% or more (almost completely withered)); R: Veronica persica, herbicidal effect (criteria 0-5) (Veronica persica): 3 (Herbicidal ratio of 40% or higher and lower than 70%); K: Lolium multiflorum Lam., herbicidal effect grade (Lolium multiflorum Lam.): 5 (Herbicidal ratio of 90% or more (almost completely withered)); F: Digitaria ciliaris, herbicidal effect grade (Digitaria ciliaris [7]): 5 (Herbicidal ratio of 90% or more (almost completely withered))
CON=C(C)CC1CC(O)=C(c2c(C)cc(C)cc2C)C1=O (stereo not drawn) [1-002, 3-hydroxy-2-mesityl-5-{2-(methoxyimino)propyl}cyclopent-2-enone]	5 (Herbicidal ratio of 90% or more (almost completely withered))	5 (Herbicidal ratio of 90% or more (almost completely withered))	5 (Herbicidal ratio of 90% or more (almost completely withered))	5 (Herbicidal ratio of 90% or more (almost completely withered))	3 (Herbicidal ratio of 40% or higher and lower than 70%)	4 (Herbicidal ratio of 70% or higher and lower than 90%)	5 (Herbicidal ratio of 90% or more (almost completely withered))	5 (Herbicidal ratio of 90% or more (almost completely withered))	5 (Herbicidal ratio of 90% or more (almost completely withered))	5 (Herbicidal ratio of 90% or more (almost completely withered))	5 (Herbicidal ratio of 90% or more (almost completely withered))	5 (Herbicidal ratio of 90% or more (almost completely withered))	4 (Herbicidal ratio of 70% or higher and lower than 90%)	4 (Herbicidal ratio of 70% or higher and lower than 90%)	5 (Herbicidal ratio of 90% or more (almost completely withered))	4 (Herbicidal ratio of 70% or higher and lower than 90%)	5 (Herbicidal ratio of 90% or more (almost completely withered))	5 (Herbicidal ratio of 90% or more (almost completely withered))	–	–	–
